In ChEMBL document CHEMBL1201862, “PubChem BioAssay data set” (2004):
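In this assay, cells in 96-well plates receive the compound at five concentrations for 48 hours. Endpoints are linearly interpolated between the surrounding concentrations. Abbreviation: GI50, concentration required for 50% inhibition of growth.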 Activity calls are given as the source filed them. No stated cut-off is given here; in the data, active = GI50 up to about 1.1 µM and inactive = higher. Square brackets hold non-standard residues; d marks the D form. Peptide text beside a SMILES is read from it. Phe(4-Cl) = N[CH](Cc1ccc(Cl)cc1)C(=O)O; 2Nal = N[CH](Cc1ccc2ccccc2c1)C(=O)O; 3Pal = N[CH](Cc1cccnc1)C(=O)O

What was measured:
Experiment in all cases: NCI tumour cell line growth inhibition, 48 h
A498 = tested on: A498
A549 = tested on: A549
CAKI-1 = tested on: CAKI-1
COLO 205 = tested on: COLO 205
EKVX = tested on: EKVX
HCT-116 = tested on: HCT-116
HOP-92 = tested on: HOP-92
HT-29 = tested on: HT-29
KM12 = tested on: KM12
M14 = tested on: M14
MDA-MB-231 = tested on: MDA-MB-231
NCI/ADR-RES = tested on: NCI/ADR-RES
SK-MEL-2 = tested on: SK-MEL-2
SN12C = tested on: SN12C
SNB-19 = tested on: SNB-19
SR = tested on: SR
TK-10 = tested on: TK-10
UO-31 = tested on: UO-31
MOLT-4 = tested on: MOLT-4
OVCAR-8 = tested on: OVCAR-8

Measured: GI50

[O-]c1c[n+](-c2ccccc2)no1
inactive: A498 > 100 µM | A549 > 100 µM | CAKI-1 > 100 µM | COLO 205 > 100 µM | EKVX > 100 µM | HCT-116 > 100 µM | HOP-92 > 100 µM | HT-29 > 100 µM | KM12 > 100 µM | M14 > 100 µM | MDA-MB-231 > 100 µM | NCI/ADR-RES > 100 µM | SK-MEL-2 > 100 µM | SN12C > 100 µM | SNB-19 > 100 µM | SR > 100 µM | TK-10 > 100 µM | UO-31 > 100 µM

Cc1cc(S(N)(=O)=O)c(S/C(=N\Nc2ccc([N+](=O)[O-])cc2)c2ccc(Cl)cc2)cc1Cl
inactive: A498 4.32 µM | A549 2.55 µM | CAKI-1 3.42 µM | COLO 205 7.87 µM | EKVX 6.19 µM | HCT-116 3.15 µM | HOP-92 2.26 µM | HT-29 1.87 µM | KM12 1.94 µM | M14 4.09 µM | MDA-MB-231 2.94 µM | MOLT-4 4.1 µM | NCI/ADR-RES 2.64 µM | SK-MEL-2 2.76 µM | SN12C 3.23 µM | SNB-19 3.33 µM | SR 2.94 µM | TK-10 1.79 µM | UO-31 4.42 µM

CN(C)CCSCCO
inactive: A498 > 100 µM | A549 > 100 µM | CAKI-1 > 100 µM | COLO 205 > 100 µM | EKVX > 100 µM | HCT-116 > 100 µM | HOP-92 > 100 µM | HT-29 > 100 µM | KM12 > 100 µM | M14 > 100 µM | MDA-MB-231 > 100 µM | NCI/ADR-RES > 100 µM | OVCAR-8 > 100 µM | SK-MEL-2 > 100 µM | SN12C > 100 µM | SNB-19 > 100 µM | SR > 100 µM | TK-10 > 100 µM | UO-31 > 100 µM

O=NN(CCCl)C(=O)NC1CCC(=O)NC1=O (centres undefined)
inactive: A498 174 µM | A549 182 µM | CAKI-1 270 µM | COLO 205 267 µM | EKVX 415 µM | HCT-116 215 µM | HOP-92 143 µM | HT-29 807 µM | KM12 212 µM | M14 356 µM | MDA-MB-231 286 µM | MOLT-4 49.2 µM | NCI/ADR-RES 193 µM | OVCAR-8 50 µM | SK-MEL-2 225 µM | SN12C 243 µM | SNB-19 112 µM | SR 25.4 µM | TK-10 379 µM | UO-31 676 µM

COc1ccc(C(c2ccccc2)N2C(=O)CCC2C(=O)O)cc1OC (centres undefined)
inactive: A498 > 100 µM | A549 > 100 µM | CAKI-1 > 100 µM | COLO 205 > 100 µM | EKVX > 100 µM | HCT-116 > 100 µM | HOP-92 > 100 µM | HT-29 > 100 µM | KM12 > 100 µM | M14 > 100 µM | MDA-MB-231 > 100 µM | MOLT-4 > 100 µM | NCI/ADR-RES > 100 µM | OVCAR-8 > 100 µM | SK-MEL-2 > 100 µM | SN12C > 100 µM | SNB-19 > 100 µM | SR > 100 µM | TK-10 > 100 µM | UO-31 > 100 µM

CC(C(=O)O)C1Nc2ccccc2NC1=O (centres undefined)
inactive: A498 > 100 µM | A549 > 100 µM | CAKI-1 > 100 µM | COLO 205 > 100 µM | EKVX > 100 µM | HCT-116 > 100 µM | HOP-92 > 100 µM | HT-29 > 100 µM | KM12 > 100 µM | M14 > 100 µM | MDA-MB-231 > 100 µM | MOLT-4 25.2 µM | NCI/ADR-RES > 100 µM | OVCAR-8 > 100 µM | SK-MEL-2 > 100 µM | SNB-19 > 100 µM | SR 65.6 µM | TK-10 > 100 µM | UO-31 > 100 µM

CC(=O)NC(Cc1ccc2ccccc2c1)C(=O)NC(Cc1ccc(Cl)cc1)C(=O)NC(Cc1cccnc1)C(=O)NC(CO)C(=O)NC(Cc1ccc(O)cc1)C(=O)NC(CCCN=C(N)N)C(=O)NC(CC(C)C)C(=O)NC(CCCN=C(N)N)C(=O)N1CCCC1C(=O)NC(C)C(N)=O (centres undefined) (Ac-[2Nal][Phe(4-Cl)][3Pal]SYRLRPA-NH2; configuration not given here)
inactive: A498 > 100 µM | A549 > 100 µM | CAKI-1 > 100 µM | COLO 205 > 100 µM | EKVX > 100 µM | HOP-92 > 100 µM | HT-29 > 100 µM | KM12 > 100 µM | M14 > 100 µM | MDA-MB-231 > 100 µM | MOLT-4 > 100 µM | NCI/ADR-RES > 100 µM | OVCAR-8 > 100 µM | SK-MEL-2 > 100 µM | SN12C > 100 µM | SNB-19 > 100 µM | SR > 100 µM | TK-10 > 100 µM | UO-31 > 100 µM
